Experimental findings from patent US20220298115A1, “SMALL MOLECULE INHIBITORS OF ACETYL COENZYME A SYNTHETASE SHORT CHAIN 2 (ACSS2)” (Curadev Pharma Pvt. Ltd., priority 2019, published 2022) are described below.

One experiment addresses T1, human ACSS2 (Homo sapiens, UniProt Q9NR19).
T1 construct: The cytosolic fraction of BT474 cells was used as a source of the ACSS2 enzyme; endogenous in cells; host or cells: BT474 cells (cytosolic fraction)
Nature of the experiment: ACSS2 enzyme assay (acetyl-CoA formation, LC-MS/MS). It is filed as biochemical. Particulars: cytosolic fraction of BT474 cells as ACSS2 source; 100 μM acetate, CoA and ATP; 2 h at 25° C.; read-out: Enzyme Activity (IC50 range). Put shortly: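 Enzyme source was BT474 cytosolic fraction (100 ng), preincubated 5 min with compound in 25 mM Tris-HCl pH7.4, 1 mM MgCl2, 1 mM DTT, 0.05% Tween20, 1% DMSO. Reaction started with 100 μM each of acetate, CoA and ATP, 2 h at 25 °C, stopped with TCA; acetyl-CoA quantified by LC-MS/MS.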

In experiment [1] the test system is [14C] acetate incorporation in macromolecules, BT474 cells. The experiment is described as follows: Cell based [14C] acetate incorporation assay. The note with it: Homo sapiens, BT-474, 3 h at 37° C., read-out: Cellular Activity (IC50 range). The essentials: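 BT474 cells (4×10^4/well, plated overnight) were preincubated with compound for 10 min at 37°C in HBSS. They were then given 0.1 μCi [14C]acetate plus 10 μM unlabelled acetate (both in the added acetate solution) for 3 h at 37°C, 5% CO2. Label incorporated into macromolecules was harvested onto PEI-treated filters and counted by scintillation.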

T1 sequence (Q9NR19 whole entry): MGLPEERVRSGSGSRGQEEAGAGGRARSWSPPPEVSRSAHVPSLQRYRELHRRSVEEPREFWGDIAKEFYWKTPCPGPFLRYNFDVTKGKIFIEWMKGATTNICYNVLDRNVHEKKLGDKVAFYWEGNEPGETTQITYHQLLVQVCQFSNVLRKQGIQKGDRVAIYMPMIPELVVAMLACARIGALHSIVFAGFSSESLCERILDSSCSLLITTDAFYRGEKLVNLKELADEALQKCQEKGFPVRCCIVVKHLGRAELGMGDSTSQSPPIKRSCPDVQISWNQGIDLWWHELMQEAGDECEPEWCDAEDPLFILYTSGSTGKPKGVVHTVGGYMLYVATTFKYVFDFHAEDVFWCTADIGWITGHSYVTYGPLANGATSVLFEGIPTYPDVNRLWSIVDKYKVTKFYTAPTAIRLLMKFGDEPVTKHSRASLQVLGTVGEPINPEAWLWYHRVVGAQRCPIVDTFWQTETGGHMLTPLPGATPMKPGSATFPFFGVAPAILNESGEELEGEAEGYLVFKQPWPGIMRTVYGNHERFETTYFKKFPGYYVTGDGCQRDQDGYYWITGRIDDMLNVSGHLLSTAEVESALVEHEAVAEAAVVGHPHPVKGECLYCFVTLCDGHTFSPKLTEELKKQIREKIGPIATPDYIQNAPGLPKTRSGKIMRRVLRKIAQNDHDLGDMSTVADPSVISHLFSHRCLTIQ

For the molecule `CCCCCC(=O)Nc1ccc2nc(-c3ccccc3OC)c(-c3ccccc3OC)cc2c1` [Example 119, N-(2,3-bis(2-methoxy-phenyl)quinolin-6-yl) hexanamide], the IC50 (on human ACSS2; in experiment [1]) was under 100 nM each time.
With `CCC(=O)CCC(=O)Nc1ccc2nc(-c3ccccc3OC)c(-c3ccccc3)cc2c1` [Example 120, N-(2-(2-methoxy-phenyl)-3-phenyl-quinolin-6-yl)-4-oxohexan-amide], the half-inhibitory concentration (IC50) (on human ACSS2; in experiment [1]) was under 100 nM each time.
As to `CCCCCC(=O)Nc1ccc2nc(-c3ccccc3F)c(-c3ccccc3F)cc2c1` [Example 121, N-(2,3-bis(2-fluorophenyl)quinolin-6-yl) hexanamide], the IC50 at human ACSS2 is under 100 nM; in experiment [1], at most 1000 nM.
`CCCCC(F)(F)C(=O)Nc1ccc2nc(-c3ccccc3)c(-c3ccccc3)cc2c1` [Example 122, N-(2,3-diphenyl-quinolin-6-yl)-2,2-difluoro-hexanamide]: the IC50 was at most 10000 nM on human ACSS2 and over 10000 nM in experiment [1].
Regarding `CCC(=O)CCC(=O)Nc1ccc2nc(-c3ccccc3F)c(-c3ccccc3)cc2c1` [Example 123, N-(2-(2-fluorophenyl)-3-phenyl-quinolin-6-yl)-4-oxohexan-amide], the half-maximal inhibitory concentration (IC50) (at human ACSS2; in experiment [1]) was under 100 nM each time.
Turning to `CCC(=O)CCC(=O)Nc1ccc2nc(-c3ccccc3F)c(-c3ccccc3F)cc2c1` [Example 124, N-(2,3-Bis(2-fluorophenyl)quinolin-6-yl)-4-oxohexanamide], the half-maximal inhibitory concentration (IC50) (at human ACSS2; in experiment [1]) was under 100 nM throughout.
Take `CCC(=O)CCC(=O)Nc1ccc2nc(-c3ccccc3)c(-c3ccccc3)cc2c1` [Example 125, N-(2,3-diphenyl-quinolin-6-yl)-4-oxohexan-amide]: the 50% inhibitory concentration (IC50) (at human ACSS2; in experiment [1]) was under 100 nM in each case.
On to `CCC(=O)CCC(=O)Nc1ccc2nc(-c3ccccc3OC)c(-c3ccccc3F)cc2c1` [Example 126, N-(3-(2-fluoro-phenyl)-2-(2-methoxy-phenyl)quinolin-6-yl)-4-oxohexan-amide], for which the IC50 (on human ACSS2; in experiment [1]) was under 100 nM throughout.
For `CCC(O)CCC(=O)Nc1ccc2nc(-c3ccccc3)c(-c3ccccc3)cc2c1` (stereo not drawn) [Example 127, N-(2,3-diphenyl-quinolin-6-yl)-4-hydroxy-hexanamide], the IC50 (on human ACSS2; in experiment [1]) was under 100 nM throughout.
As to `CCC(O)CCC(=O)Nc1ccc2nc(-c3ccccc3F)c(-c3ccccc3F)cc2c1` (stereo not drawn) [Example 128, N-(2,3-Bis(2-fluorophenyl)quinolin-6-yl)-4-hydroxyhexanamide], the IC50 (at human ACSS2; in experiment [1]) was under 100 nM in each case.
On to `CCC(O)CCC(=O)Nc1ccc2nc(C)c(-c3ccccc3F)cc2c1` (stereo not drawn) [Example 129, N-(3-(2-fluorophenyl)-2-methyl-quinolin-6-yl)-4-hydroxy-hexanamide], for which the IC50 (on human ACSS2; in experiment [1]) was under 100 nM each time.
For the molecule `CCC(O)CCC(=O)Nc1ccc2nc(C)c(-c3ccccc3)cc2c1` (stereo not drawn) [Example 130, 4-hydroxy-N-(2-methyl-3-phenyl-quinolin-6-yl)hexan-amide], the results for the IC50 (at human ACSS2; in experiment [1]) were under 100 nM and at most 1000 nM, respectively.
Turning to `O=C(Nc1ccc2nc(-c3ccccc3)c(-c3ccccc3)cc2c1)NC1CCCCC1` [Example 131, 1-cyclohexyl-3-(2,3-diphenylquinolin-6-yl)urea], the concentration for half-maximal inhibition (IC50) (at human ACSS2; in experiment [1]) was at most 1000 nM each time.
Take `CN1CCN(C(=O)Nc2ccc3nc(-c4ccccc4)c(-c4ccccc4)cc3c2)CC1` [Example 132, N-(2,3-diphenylquinolin-6-yl)-4-methylpiperazine-1-carboxamide]: the IC50 on human ACSS2 is at most 10000 nM; in experiment [1], over 10000 nM.
Regarding `CC(=O)N1CCN(C(=O)Nc2ccc3nc(-c4ccccc4)c(-c4ccccc4)cc3c2)CC1` [Example 133, 4-acetyl-N-(2,3-diphenylquinolin-6-yl)piperazine-1-carboxamide], the IC50 on human ACSS2 was at most 10000 nM; in experiment [1], over 10000 nM.
Regarding `C=CCNC(=O)Nc1ccc2nc(-c3ccccc3)c(-c3ccccc3)cc2c1` [Example 134, 1-allyl-3-(2,3-diphenylquinolin-6-yl)urea], the concentration for half-maximal inhibition (IC50) (at human ACSS2; in experiment [1]) was at most 1000 nM each time.
In the case of `C#CCNC(=O)Nc1ccc2nc(-c3ccccc3)c(-c3ccccc3)cc2c1` [Example 135, 1-(2,3-diphenylquinolin-6-yl)-3-(prop-2-yn-1-yl)urea], the IC50 (on human ACSS2; in experiment [1]) was at most 1000 nM in each case.
As for `O=C(Nc1ccc2nc(-c3ccccc3)c(-c3ccccc3)cc2c1)NC1CCCC1O` (stereo not drawn) [Example 136, 1-(2,3-diphenylquinolin-6-yl)-3-(2-hydroxycyclo-pentyl)urea], the IC50 (at human ACSS2; in experiment [1]) was at most 1000 nM each time.
`O=C(Nc1ccc2nc(-c3ccccc3)c(-c3ccccc3)cc2c1)NC1CCOCC1` [Example 137, 1-(2,3-diphenylquinolin-6-yl)-3-(tetrahydro-2H-pyran-4-yl)urea]: the IC50 (on human ACSS2; in experiment [1]) was at most 1000 nM each time.
For the molecule `COC1CCN(C(=O)Nc2ccc3nc(-c4ccccc4)c(-c4ccccc4)cc3c2)C1` (stereo not drawn) [Example 138, N-(2,3-diphenylquinolin-6-yl)-3-methoxypyrrol-idine-1-carboxamide], the IC50 (on human ACSS2; in experiment [1]) was under 100 nM in each case.
On to `O=C(Nc1ccc2nc(-c3ccccc3)c(-c3ccccc3)cc2c1)Nc1ccccn1` [Example 139, 1-(2,3-diphenylquinolin-6-yl)-3-(pyridin-2-yl)urea], for which the 50% inhibitory concentration (IC50) (at human ACSS2; in experiment [1]) was over 10000 nM each time.
Turning to `O=C(Nc1ccccc1)Nc1ccc2nc(-c3ccccc3)c(-c3ccccc3)cc2c1` [Example 140, 1-(2,3-diphenylquinolin-6-yl)-3-phenylurea], the IC50 (on human ACSS2; in experiment [1]) was over 10000 nM in each case.
For the molecule `CN1CCC(NC(=O)Nc2ccc3nc(-c4ccccc4)c(-c4ccccc4)cc3c2)C1` (stereo not drawn) [Example 141, 1-(2,3-diphenylquinolin-6-yl)-3-(1-methylpyrrolidin-3-yl)urea], the IC50 was at most 10000 nM at human ACSS2 and over 10000 nM in experiment [1].
`O=C(Nc1ccncc1)Nc1ccc2nc(-c3ccccc3)c(-c3ccccc3)cc2c1` [Example 142, 1-(2,3-diphenylquinolin-6-yl)-3-(pyridin-4-yl)urea]: the IC50 (at human ACSS2; in experiment [1]) was over 10000 nM in each case.
As to `O=C(Nc1ccc2nc(-c3ccccc3)c(-c3ccccc3)cc2c1)NC1(CO)CCCC1` [Example 143, 1-(2,3-diphenylquinolin-6-yl)-3-(1-(hydroxymethyl)cyclopentyl) urea], the values for the IC50 (on human ACSS2; in experiment [1]) were over 10000 nM and at most 10000 nM, respectively.
`Cn1cc(NC(=O)Nc2ccc3nc(-c4ccccc4)c(-c4ccccc4)cc3c2)cn1` [Example 144, 1-(2,3-diphenylquinolin-6-yl)-3-(1-methyl-1H-pyrazol-4-yl)urea]: the 50% inhibitory concentration (IC50) at human ACSS2 is at most 1000 nM; in experiment [1], under 100 nM.
Consider `CCC(O)CNC(=O)Nc1cnc2nc(-c3ccccc3)c(-c3ccccc3)cc2c1` (stereo not drawn) [Example 145, 1-(6,7-Diphenyl-1,8-naphthyridin-3-yl)-3-(2-hydroxybutyl)urea], for which the IC50 (on human ACSS2; in experiment [1]) was at most 1000 nM each time.

Usually IC50 stands for the concentration that gives 50% inhibition.
